Data from US20040086880A1, “Method of producing nucleic acid molecules with reduced secondary structure” (priority 1999, published 2004).

Key:
T7 RNA polymerase = molecular target: T1, T7 RNA polymerase (Escherichia phage T7, UniProt P00573); assay: Transcription of ribo-UNA from linearized DNA template; format: biochemical; conditions: substituted for ATP and UTP; 37° C., one hour
T1 construct: purchased Ambion Inc
Method: The ability to transcribe longer ribo-UNAs (rUNAs) using T7 RNA polymerase and the corresponding modified ribonucleotide triphosphates was tested using a linear double-stranded DNA template. A plasmid DNA containing the human retinoblastoma gene under control of a T7 RNA polymerase promoter was digested with the restriction endonucleases XbaI and AflII. The resulting linearized plasmid templates for a 138 nucleotide transcript when transcribed with T7 RNA polymerase (see FIG. 34A).
The transcription reactions (20 uL) contained 1× transcription buffer (Ambion Inc.), 0.5 mM GTP, 0.5 mM ATP (or 2-aminoadenosine-5′-triphosphate (rD)), 0.5 mM UTP (or 2-thiouridine-5′-triphosphate (rS), 1.6 uM α-^32P-CTP, 1 ug of the linearized DNA template and 10 units of T7 RNA polymerase (Ambion Inc.). The reaction mixtures were incubated at 37° C. for one hour and then separated by electrophoresis on a 6%/7M urea polyacrylamide gel.

Bst DNA polymerase [1] = molecular target: T2, Bst DNA polymerase (Geobacillus stearothermophilus, UniProt P52026); assay: Incorporation specificity of 2-thio-2′-deoxycytidine triphosphate opposite template G or I; format: biochemical; conditions: 5.0 uM dNTP, 45° C.; for primer extension rate: template I
T2 sequence (P52026 1-876): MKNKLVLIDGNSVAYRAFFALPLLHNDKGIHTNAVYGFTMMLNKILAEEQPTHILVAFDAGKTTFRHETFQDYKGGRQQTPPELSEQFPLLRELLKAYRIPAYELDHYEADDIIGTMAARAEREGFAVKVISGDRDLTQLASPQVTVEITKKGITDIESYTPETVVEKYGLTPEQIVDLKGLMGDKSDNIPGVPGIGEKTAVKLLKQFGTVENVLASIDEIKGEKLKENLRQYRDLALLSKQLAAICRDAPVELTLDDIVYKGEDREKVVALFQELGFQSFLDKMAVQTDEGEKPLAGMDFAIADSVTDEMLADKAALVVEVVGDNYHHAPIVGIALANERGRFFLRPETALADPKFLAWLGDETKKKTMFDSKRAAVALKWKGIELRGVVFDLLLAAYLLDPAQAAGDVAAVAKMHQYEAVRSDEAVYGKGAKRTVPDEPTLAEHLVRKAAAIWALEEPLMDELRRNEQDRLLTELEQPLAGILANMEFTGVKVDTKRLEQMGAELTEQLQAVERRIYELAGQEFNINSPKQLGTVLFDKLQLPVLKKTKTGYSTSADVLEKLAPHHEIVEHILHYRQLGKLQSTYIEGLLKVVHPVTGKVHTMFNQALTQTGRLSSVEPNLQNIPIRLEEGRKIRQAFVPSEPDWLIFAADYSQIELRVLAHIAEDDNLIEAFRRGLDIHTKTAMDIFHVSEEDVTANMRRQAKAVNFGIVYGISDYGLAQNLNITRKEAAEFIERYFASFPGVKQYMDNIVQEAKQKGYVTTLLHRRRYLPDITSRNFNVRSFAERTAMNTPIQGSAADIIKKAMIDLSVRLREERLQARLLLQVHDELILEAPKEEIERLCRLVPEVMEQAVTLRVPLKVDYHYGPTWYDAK
Method: The reactions were incubated at 45° C. At 5, 10, 20 and 40 minutes, 7.0 uL aliquots were removed and the reaction mixture was separated by electrophoresis on 20%/7M urea polyacrylamide gels. The products were visualized by phosphorimaging.

[2] = 28-mer duplexes; cited from earlier work
[3] = molecular target: T3, SuperScript II MMLV reverse transcriptase (Moloney murine leukemia virus, UniProt P03355, D1183G/D1242N/E1221Q); assay: Synthesis of full-length cUNA from polyadenylated T7-RNA transcripts; format: biochemical; conditions: additional substitution for GTP; relative to natural dNTP or D/S substituted reactions
T3 construct: 200 units of SuperScript II MMLV reverse transcriptase (InVitrogen); purchased InVitrogen
Method: The ability to synthesize full-length UNA copies (cUNAs) of polyadenylated RNA was tested using various reverse transcriptase enzymes and three T7-RNA transcripts having 3′-polyadenylated tails as templates. The three T7-RNA transcripts correspond to the genes for the penicillin binding protein from E. coli (pBp-1), the chlorophyll A/B binding protein from Arabidopsis thaliana (Cab), and nucleotides 5-335 of the Hepatitis C virus (HCV) genome (See FIG. 32 (panel A)). The expected length of the cUNAs generated from the three polyadenylated RNAs using an oligo-dT primer is 1194, 729 and 360 nucleotides respectively (see FIG. 32 (panel B)).
The reverse transcriptase reactions (15.0 uL) were performed in 0.65 mL pre-siliconized microfuge tubes containing the following components: 50 mM Tris-Cl (pH 8.3), 75 mM KCl, 3.0 mM MgCl2, 4.5 mM DTT, 500 uM dGTP (or dITP), 500 uM dATP (or 2-amino-2′-deoxyadenosine-5′-triphosphate), 500 uM TTP (or 2-thiothymidine-5′-triphosphate), 100 uM dCTP, 0.33 uCi of ^32P-α-dCTP, 20 nM each T7-RNA template, 1.0 uM T16N2 primer, 1.0 unit of RNase Out (In Vitrogen), and 200 units of SuperScript II MMLV reverse transcriptase (InVitrogen). The buffer components, RNA template and primer were annealed by heating to 75° C. for 4 minutes and quickly cooled to room temperature. […]

Bst DNA polymerase [4] = molecular target: T4, Bst DNA polymerase (Geobacillus stearothermophilus, UniProt P52026); assay: Single nucleotide extension of 6-mer primers at varying dNTP concentration; format: biochemical; conditions: for extension efficiency of 6-mer primer compared with natural dNTP: dNTP 0.5 microM to 130 microM, 45° C., 8 hours
T4 construct: purchased New England Biolabs
T4 sequence (P52026 290-876 limits assumed): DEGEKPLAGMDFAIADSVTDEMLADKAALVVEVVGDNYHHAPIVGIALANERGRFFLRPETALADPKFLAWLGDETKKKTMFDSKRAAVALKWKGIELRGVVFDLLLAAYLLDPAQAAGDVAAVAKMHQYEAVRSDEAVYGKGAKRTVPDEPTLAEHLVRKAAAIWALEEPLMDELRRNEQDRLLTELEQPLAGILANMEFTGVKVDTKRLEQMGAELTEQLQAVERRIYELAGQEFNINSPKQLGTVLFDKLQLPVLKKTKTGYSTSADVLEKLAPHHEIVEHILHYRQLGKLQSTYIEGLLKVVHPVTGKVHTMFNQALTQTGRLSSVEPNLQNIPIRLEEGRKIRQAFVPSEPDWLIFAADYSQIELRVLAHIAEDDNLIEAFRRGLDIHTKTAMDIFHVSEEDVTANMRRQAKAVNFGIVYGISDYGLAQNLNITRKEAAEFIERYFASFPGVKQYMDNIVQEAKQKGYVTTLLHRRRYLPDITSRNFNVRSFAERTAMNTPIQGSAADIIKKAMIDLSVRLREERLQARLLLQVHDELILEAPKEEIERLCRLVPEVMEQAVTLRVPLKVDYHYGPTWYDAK
Method: To further assess the incorporation efficiency of the modified nucleotides by Bst DNA polymerase, the efficiency for a single nucleotide extension reaction was determined using two 6-mer primers in the presence of varying concentrations of dATP, 2-amino-2′-deoxyadenosine-5′-triphosphate, dTTP or 2-thiothymidine-5′-triphosphate (illustrated as 2-thioTTP) (FIGS. 3A and 4A). For this study, the reaction mixtures contained: 20 mM Tris-Cl (pH 8.8 @ 25° C.), 10 mM KCl, 10 mM (NH4)2SO4, 2 mM MgSO4, 0.1% Triton-X100, 500 nanoM 6-mer primer, 20 nanoM 30-mer DNA template, 0.8 units/microL (˜70 nanoM) Bst DNA polymerase and a dNTP concentration ranging from 0.5 microM to 130 microM. The reaction mixtures were incubated at 45° C. for 8 hours and separated by electrophoresis on 20% denaturing (7M urea) polyacrylamide gels.

T1 sequence (P00573 whole entry): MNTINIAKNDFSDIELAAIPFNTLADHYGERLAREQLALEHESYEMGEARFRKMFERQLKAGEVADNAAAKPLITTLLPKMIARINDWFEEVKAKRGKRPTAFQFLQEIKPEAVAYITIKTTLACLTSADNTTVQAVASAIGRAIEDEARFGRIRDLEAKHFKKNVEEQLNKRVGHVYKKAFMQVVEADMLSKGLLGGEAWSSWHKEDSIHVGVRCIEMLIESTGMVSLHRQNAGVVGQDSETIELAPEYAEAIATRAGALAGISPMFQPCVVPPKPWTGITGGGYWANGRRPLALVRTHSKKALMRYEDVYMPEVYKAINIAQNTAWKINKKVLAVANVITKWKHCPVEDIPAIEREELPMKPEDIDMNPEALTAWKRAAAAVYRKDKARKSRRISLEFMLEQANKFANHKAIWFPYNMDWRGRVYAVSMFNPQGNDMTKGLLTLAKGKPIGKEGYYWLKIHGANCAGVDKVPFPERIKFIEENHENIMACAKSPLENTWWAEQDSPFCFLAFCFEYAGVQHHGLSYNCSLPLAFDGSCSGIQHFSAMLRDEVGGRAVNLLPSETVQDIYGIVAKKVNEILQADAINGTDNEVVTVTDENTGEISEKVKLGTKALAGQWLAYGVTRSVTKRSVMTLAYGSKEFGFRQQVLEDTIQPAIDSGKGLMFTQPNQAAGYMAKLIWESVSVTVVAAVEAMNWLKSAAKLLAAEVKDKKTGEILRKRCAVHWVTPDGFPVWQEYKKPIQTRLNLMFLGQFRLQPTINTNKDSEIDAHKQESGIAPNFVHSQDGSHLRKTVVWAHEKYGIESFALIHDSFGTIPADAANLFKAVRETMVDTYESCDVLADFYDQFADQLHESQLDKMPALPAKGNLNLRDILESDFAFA

Nc1nc(N)c2ncn([C@@H]3O[C@H](COP(=O)(O)OP(=O)(O)OP(=O)(O)O)[C@@H](O)[C@H]3O)c2n1 [2-aminoadenosine-5′-triphosphate]
full-length product (138 nucleotide transcript) (T7 RNA polymerase): full-length product is generated

Nc1ccn([C@H]2C[C@H](O)[C@@H](COP(=O)(O)OP(=O)(O)OP(=O)(O)O)O2)c(=S)n1 [2-thio-2′-deoxycytidine triphosphate, 2-thio-2′-deoxycytidine-5′-triphosphate]
primer extension rate (Bst DNA polymerase [1]): equivalent

O=c1ccn([C@@H]2O[C@H](COP(=O)(O)OP(=O)(O)OP(=O)(O)O)[C@@H](O)[C@H]2O)c(=S)[nH]1 [2-thiouridine-5′-triphosphate]
full-length product (138 nucleotide transcript) (T7 RNA polymerase): full-length product is generated

OC[C@H]1O[C@@H](n2cnc3c(O)ncnc32)[C@H](O)[C@@H]1O [I, inosine]
change of duplex Tm per modified base pair [2]: −1.9 °C

O=P(O)(O)OP(=O)(O)OP(=O)(O)OC[C@H]1O[C@@H](n2cnc3c(O)ncnc32)C[C@@H]1O [ITP, 2′-deoxyinosine-5′-triphosphate]
reduction of yield of full-length product [3]: about 2 fold

c1cc2[nH]cncc-2n1 [P, pyrrolo-pyrimidine]
change of duplex Tm per modified base pair [2]: −0.5 °C

Nc1ncnc2c1ncn2[C@H]1C[C@H](O)[C@@H](COP(=O)(O)OP(=O)(O)OP(=O)(O)O)O1 [dATP, 2′-deoxyadenosine-5′-triphosphate, reference compound]
extension efficiency of 6-mer primer compared with natural dNTP (Bst DNA polymerase [4]): approximately equal efficiencies

Nc1ccn([C@H]2C[C@H](O)[C@@H](COP(=O)(O)OP(=O)(O)OP(=O)(O)O)O2)c(=O)n1 [dCTP, 2′-deoxycytidine-5′-triphosphate, reference compound]
conversion of the 12-mer primer to the 13-mer extension product (Bst DNA polymerase [1]; template G): efficient conversion
primer extension rate (Bst DNA polymerase [1]): equivalent

Cc1cn([C@H]2C[C@H](O)[C@@H](COP(=O)(O)OP(=O)(O)OP(=O)(O)O)O2)c(=O)[nH]c1=O [dTTP, 2′-deoxythymidine-5′-triphosphate, reference compound]
EC50 (Bst DNA polymerase [4]): ~4 µM
extension efficiency of 6-mer primer compared with natural dNTP (Bst DNA polymerase [4]): very similar
